Assay results from patent publication US20250042924A1, “WATER-SOLUBLE PHYTIN” (OTSUKA PHARMACEUTICAL CO., LTD., priority 2021, published 2025).

Key:
[1] = tested on: rat small intestine powder (enzyme solution); assay: Test Example 2 purine nucleotide metabolism inhibitory activity (inosine monophosphate substrate, HPLC); type: biochemical; settings: 37° C., 30 minutes
Method: Ca(OH)2 (Inoue Calcium Corporation) as a calcium source, Mg(OH)2 (Tomita Pharmaceutical Co., Ltd.) as a magnesium source, KOH (NIPPON SODA CO., LTD.) as a potassium source, NaOH (Tosoh Corporation) as a sodium source were placed in a 50 mL PP tube (IWAKI) at molar ratios of the minerals shown in Table 2. Then a commercially available phytic acid solution (product name: phytic acid (IP6), TSUNO Food Industrial co., ltd.) 0.426 mL (containing 0.296 g of phytic acid) was placed therein. Distilled water (Otsuka Pharmaceutical Factory, Inc.) was added thereto to make up the volume to 30 mL. The mixture was stirred for 30 seconds using a vortex mixer, followed by ultrasonication (ASONE) for 60 seconds to prepare a test solution containing phytin with various mineral compositions.
As a positive control, a test solution containing a commercially available phytin (phytin (IP6), TSUNO Food Industrial co., ltd.) was prepared at the same concentration of phytic acid as the other test solutions.
A 100 mg/mL of solution of rat small intestine powder (Clare Japan, Inc.) in the assay buffer was used as an enzyme solution. Inosine monophosphate (Sigma-Aldrich) was diluted with the assay buffer to the concentration of 9 mM to prepare a substrate solution. Enzymatic reaction was performed using a 96 well plate (Thermo Fisher Scientific) in the following manner. […]

[2] = Test Example 4 stability (deliquescence); type: physicochemical; set-up: key: “Deliquesced” refers to a change where the sample completely liquefied to become starch syrup-like; “Partially-deliquesced” refers to a change where a part of the sample deliquesced or solidified.; “No change” refers to a no change in state of the sample; settings: 200 mg, 25° C., humidity 75.3%, 64 hours
Method: Ca(OH)2 (Inoue Calcium Corporation) as a calcium source, Mg(OH)2 (Tomita Pharmaceutical Co., Ltd.) as a magnesium source, KOH (NIPPON SODA CO., LTD.) as a potassium source, NaOH (Tosoh Corporation) as a sodium source were placed in a 50 mL PP tube (IWAKI) at the molar ratios of minerals shown in Table 3. Then a commercially available phytic acid solution (product name: phytic acid (IP6), TSUNO Food Industrial co., ltd.) 0.426 mL (containing 0.296 g of phytic acid) was placed therein. Distilled water (Otsuka Pharmaceutical Factory, Inc.) was added thereto to make up the volume to 30 mL. The mixture was stirred for 30 seconds using a vortex mixer, followed by ultrasonication (ASONE) for 60 seconds. This operation of stirring and ultrasonication was repeated three times in total. Then the mixture was adjusted to pH 4.0±0.2 with hydrochloric acid and pre-frozen at −80° C. The pre-frozen mixture was freeze-dried by using a freeze dryer to provide a completely powdered phytin. The completely powdered phytin was used as a sample.
As positive controls, a sample of phytic acid (powder) prepared following the above procedure without adding any mineral component, and a commercially available phytic acid powder product (product name: Powdered phytic acid, FUSO CHEMICAL CO., LTD.) were used. […]

O=P(O)(O)O[C@H]1[C@H](OP(=O)(O)O)[C@@H](OP(=O)(O)O)[C@H](OP(=O)(O)O)[C@@H](OP(=O)(O)O)[C@H]1OP(=O)(O)O [Phytic acid (PA), phytic acid]
enzyme inhibitory activity [1]: around 30%
Deliquescence [2]: Deliquesced
Deliquescence ([2]; listed as phytic acid sample): deliquesced
